# Structures can show the parent of a compound that is named as a salt.
# What was measured:
# [1] = target: T1, Full length Cereblon protein (6His tev Cereblon/6His tev DDB1ΔBPB) (Homo sapiens, UniProt Q96SW2); experiment: Cereblon Binding Assay (TR-FRET); conditions: 5 nM protein, 50 nM Alexa647-lenalidomide ligand, read-out: Mean pIC50 (converted)
# T1 construct: Full length Cereblon protein (6His tev Cereblon/6His tev DDB1ΔBPB) was expressed and purified from E. coli; made in house; host or cells: E. coli
# T1 sequence (Q96SW2 whole entry, stated change not applied): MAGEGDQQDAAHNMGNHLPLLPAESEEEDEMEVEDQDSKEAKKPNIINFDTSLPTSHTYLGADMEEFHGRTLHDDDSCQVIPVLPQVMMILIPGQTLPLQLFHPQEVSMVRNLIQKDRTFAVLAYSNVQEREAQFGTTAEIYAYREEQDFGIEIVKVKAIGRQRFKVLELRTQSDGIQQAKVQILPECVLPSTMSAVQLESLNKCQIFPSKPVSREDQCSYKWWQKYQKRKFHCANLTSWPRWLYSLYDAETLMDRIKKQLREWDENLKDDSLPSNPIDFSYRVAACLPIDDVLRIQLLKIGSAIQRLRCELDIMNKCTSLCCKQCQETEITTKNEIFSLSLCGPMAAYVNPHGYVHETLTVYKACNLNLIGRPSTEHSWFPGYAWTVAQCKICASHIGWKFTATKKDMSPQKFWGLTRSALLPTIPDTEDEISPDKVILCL
# Experimental: Full length Cereblon protein (6His tev Cereblon/6His tev DDB1ΔBPB) was expressed and purified from E. coli to monitor compound binding. […] A Thermo Scientific Multidrop Combi was used to dispense 5 μL of 10 nM protein in assay buffer of 50 mM
# HEPES, 150 mM NaCl, 5% glycerol, 1 mM DTT and 1 mM CHAPS, pH 7.4, in the presence of 100 nM fluorescent ligand (Final assay concentrations of 5 nM protein and 50 nM ligand). After equilibrating for 15 min in the dark at room temperature a 5 μL addition was made of 2 nM europium chelate labelled anti-6His antibody (Perkin Elmer, W1024, AD0111) in assay buffer (1 nM FAC). […] TR-FRET ratio data was normalised to high (DMSO) and low (reaction in the absence of protein) controls and pIC50 values determined for each of the compounds tested by fitting the fluorescence ratio data to a four parameter model:
# [formula] • where ‘a’ is the minimum, ‘b’ is the maximum, ‘c’ is the pIC50 and ‘d’ is the Hill slope.
# [2] = target: T2, Androgen Receptor (Homo sapiens, UniProt P10275, T878A); experiment: Androgen Receptor Degradation Assay (Nano-Glo HiBiT); format: cell-based; conditions: 18 h, HiBiT-tagged AR in human LnCaP cells; for Dmax: LNCaP, read-out: mean asymptote max
# T2 construct: the AR gene was modified, using CRISPR/Cas9 editing, so the expressed AR protein included an 11 amino acid HiBiT tag; endogenous in cells; host or cells: clonal LnCaP-derived line, AR gene edited by CRISPR/Cas9
# T2 sequence (P10275 whole entry T878A): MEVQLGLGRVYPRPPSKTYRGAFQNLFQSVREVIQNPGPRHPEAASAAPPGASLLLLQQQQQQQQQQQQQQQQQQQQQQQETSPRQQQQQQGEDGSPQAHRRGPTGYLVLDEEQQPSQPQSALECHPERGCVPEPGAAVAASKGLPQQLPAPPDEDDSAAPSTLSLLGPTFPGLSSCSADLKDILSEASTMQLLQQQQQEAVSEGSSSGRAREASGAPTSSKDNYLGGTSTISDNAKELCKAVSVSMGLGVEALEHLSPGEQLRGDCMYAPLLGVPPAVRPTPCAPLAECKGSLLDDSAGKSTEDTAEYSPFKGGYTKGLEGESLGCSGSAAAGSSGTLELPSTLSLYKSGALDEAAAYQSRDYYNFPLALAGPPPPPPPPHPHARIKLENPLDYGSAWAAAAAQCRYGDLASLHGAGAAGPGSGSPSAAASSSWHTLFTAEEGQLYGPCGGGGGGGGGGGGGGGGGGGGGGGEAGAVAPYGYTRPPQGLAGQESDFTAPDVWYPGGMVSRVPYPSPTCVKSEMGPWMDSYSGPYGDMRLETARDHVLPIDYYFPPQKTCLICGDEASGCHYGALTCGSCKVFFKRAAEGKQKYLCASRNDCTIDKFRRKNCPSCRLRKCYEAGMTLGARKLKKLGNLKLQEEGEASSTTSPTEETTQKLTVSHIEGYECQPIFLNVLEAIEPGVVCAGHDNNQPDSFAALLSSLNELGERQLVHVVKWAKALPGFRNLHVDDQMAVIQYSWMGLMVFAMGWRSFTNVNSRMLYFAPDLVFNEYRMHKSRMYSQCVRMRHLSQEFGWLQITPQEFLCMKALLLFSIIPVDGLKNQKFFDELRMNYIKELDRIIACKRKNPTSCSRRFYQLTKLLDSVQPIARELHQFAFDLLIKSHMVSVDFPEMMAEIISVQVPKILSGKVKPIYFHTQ
# T2 sequence (Q96SW2 whole entry partner): as the sequence (Q96SW2 whole entry, stated change not applied) above
# T2 sequence (Q16531 whole entry partner): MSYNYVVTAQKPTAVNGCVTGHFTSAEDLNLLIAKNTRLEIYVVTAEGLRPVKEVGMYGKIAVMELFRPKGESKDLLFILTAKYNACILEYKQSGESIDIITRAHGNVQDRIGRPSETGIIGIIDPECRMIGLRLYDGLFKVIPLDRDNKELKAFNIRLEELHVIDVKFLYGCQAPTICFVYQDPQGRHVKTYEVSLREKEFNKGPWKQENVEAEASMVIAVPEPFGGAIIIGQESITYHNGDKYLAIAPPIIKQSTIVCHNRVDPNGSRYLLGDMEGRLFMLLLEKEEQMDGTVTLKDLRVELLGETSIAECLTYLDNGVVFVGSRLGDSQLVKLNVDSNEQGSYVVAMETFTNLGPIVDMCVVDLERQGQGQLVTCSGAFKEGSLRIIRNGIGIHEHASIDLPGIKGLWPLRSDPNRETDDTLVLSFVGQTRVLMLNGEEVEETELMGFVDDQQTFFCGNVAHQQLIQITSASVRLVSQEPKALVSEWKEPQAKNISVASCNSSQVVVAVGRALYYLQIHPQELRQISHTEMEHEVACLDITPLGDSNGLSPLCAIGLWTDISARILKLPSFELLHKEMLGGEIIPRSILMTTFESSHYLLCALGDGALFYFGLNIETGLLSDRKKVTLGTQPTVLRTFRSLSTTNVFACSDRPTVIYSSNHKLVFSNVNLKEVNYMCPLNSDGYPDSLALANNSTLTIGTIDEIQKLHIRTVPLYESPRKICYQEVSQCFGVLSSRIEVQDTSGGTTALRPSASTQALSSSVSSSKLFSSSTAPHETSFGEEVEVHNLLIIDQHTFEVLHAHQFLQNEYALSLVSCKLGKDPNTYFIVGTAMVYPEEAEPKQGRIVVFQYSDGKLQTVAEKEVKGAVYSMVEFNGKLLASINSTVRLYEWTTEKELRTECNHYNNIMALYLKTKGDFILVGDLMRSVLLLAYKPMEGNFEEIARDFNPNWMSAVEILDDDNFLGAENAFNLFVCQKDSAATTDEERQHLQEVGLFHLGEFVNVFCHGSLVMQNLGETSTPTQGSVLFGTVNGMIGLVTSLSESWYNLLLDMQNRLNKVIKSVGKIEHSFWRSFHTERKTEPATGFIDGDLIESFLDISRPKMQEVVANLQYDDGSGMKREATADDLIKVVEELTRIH
# Outline: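 LnCaP cells with CRISPR-knocked-in N-terminal HiBiT-tagged AR (10,000/well) treated 18 h at 37 °C with PROTACs over 11 threefold concentrations; lytic HiBiT luminescence normalised to DMSO (0%) and cell-free (100%) controls. Relative DC50 = 4-parameter fit inflection; absolute DC50 = 50% degradation interpolation; Dmax = maximum observed degradation.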
Structure (SMILES),IC50 [1],Dmax [2],mean relative pDC50 [2]
"N#Cc1ccc(O[C@H]2CC[C@H](NC(=O)c3ccc(N4CCCC(CN5CCC(n6ccc7c(N8CCC(=O)NC8=O)cccc76)CC5)C4)nn3)CC2)cc1Cl (mixture of isomers) [EAR73, rac-N-((1r,4r)-4-(3-Chloro-4-cyanophenoxy)cyclohexyl)-6-(3-((4-(4-(2,4-dioxotetrahydropyrimidin-1(2H)-yl)-1H-indol-1-yl)piperidin-1-yl)methyl)piperidin-1-yl)pyridazine-3-carboxamide]",≤ 1000 nM,≥ 50%,–
"N#Cc1ccc(O[C@H]2CC[C@H](NC(=O)c3ccc(N4CCC(CN5CCC(n6ccc7c(N8CCC(=O)NC8=O)cccc76)C(F)(F)C5)CC4)nn3)CC2)cc1Cl (single isomer, unassigned) [EAR162, N-((1r,4r)-4-(3-Chloro-4-cyanophenoxy)cyclohexyl)-6-(4-((4-(4-(2,4-dioxotetrahydropyrimidin-1(2H)-yl)-1H-indol-1-yl)-3,3-difluoropiperidin-1-yl)methyl)piperidin-1-yl)pyridazine-3-carboxamide]",≤ 1000 nM,≥ 50%,–
"CC1(C)[C@H](NC(=O)c2ccc(N3CCC(CN4CCC(n5ncc6c(N7CCC(=O)NC7=O)cccc65)CC4)CC3)nn2)C(C)(C)[C@H]1Oc1cnc(C#N)c(Cl)c1 [EAR249, N-((1r,3r)-3-((5-Chloro-6-cyanopyridin-3-yl)oxy)-2,2,4,4-tetramethylcyclobutyl)-6-(4-((4-(4-(2,4-dioxotetrahydropyrimidin-1(2H)-yl)-1H-indazol-1-yl)piperidin-1-yl)methyl)piperidin-1-yl)pyridazine-3-carboxamide hydrochloride]",≤ 1000 nM,≥ 50%,–
"CC1(C)[C@H](NC(=O)c2ncc(N3CCC(CN4CCC(n5ncc6c(N7CCC(=O)NC7=O)nccc65)CC4)CC3)cn2)C(C)(C)[C@H]1Oc1ccc(C#N)c(Cl)c1 [EAR273, N-((1r,3r)-3-(3-Chloro-4-cyanophenoxy)-2,2,4,4-tetramethylcyclobutyl)-5-(4-((4-(4-(2,4-dioxotetrahydropyrimidin-1(2H)-yl)-1H-pyrazolo[4,3-c]pyridin-1-yl)piperidin-1-yl)methyl)piperidin-1-yl)pyrimidine-2-carboxamide]",–,≥ 50%,5.67
"CC(C)n1ccc2c(N3CCC(=O)NC3=O)cc(C(=O)N3CCN(CCC4CCN(c5ccc(NC(=O)N6C[C@H](C)N(c7ccc(C#N)c(Cl)c7)C[C@H]6C)cn5)CC4)CC3)cc21 [EAR 118, (2R,5S)-4-(3-Chloro-4-cyanophenyl)-N-(6-(4-(2-(4-(4-(2,4-dioxotetrahydropyrimidin-1(2H)-yl)-1-isopropyl-1H-indole-6-carbonyl)piperazin-1-yl)ethyl)piperidin-1-yl)pyridin-3-yl)-2,5-dimethylpiperazine-1-carboxamide]",–,≥ 50%,5.72
"O=C1CCN(c2cncc3c2ccn3C2CCNCC2)C(=O)N1 [ECB6, 1-(1-(piperidin-4-yl)-1H-pyrrolo[2,3-c]pyridin-4-yl)dihydropyrimidine-2,4(1H,3H)-dione]",25.1 nM,–,–
"O=C1CCN(c2nccc3c2cnn3C2CCNCC2)C(=O)N1 [ECB7, 1-(1-(piperidin-4-yl)-1H-pyrazolo[4,3-c]pyridin-4-yl)dihydropyrimidine-2,4(1H,3H)-dione]",79.4 nM,–,–
"O=C1CCN(c2cncc3c2cnn3C2CCNCC2)C(=O)N1 [ECB8, 1-(1-(Piperidin-4-yl)-1H-pyrazolo[3,4-c]pyridin-4-yl)dihydropyrimidine-2,4(1H,3H)-dione]",251 nM,–,–
"O=C1CCN(c2cc(Cl)cc3c2ccn3C2CCNCC2)C(=O)N1 [ECB9, 1-(6-Chloro-1-(piperidin-4-yl)-1H-indol-4-yl)dihydropyrimidine-2,4(1H,3H)-dione]",7.94 nM,–,–
"O=C1CCN(c2cc(F)cc3c2cnn3C2CCNCC2)C(=O)N1 [ECB10, 1-(6-Fluoro-1-(piperidin-4-yl)-1H-indazol-4-yl)dihydropyrimidine-2,4(1H,3H)-dione]",200 nM,–,–
"CC(C)n1ccc2c(N3CCC(=O)NC3=O)cc(C(=O)N3CCNCC3)cc21 [ECB11, 1-(1-isopropyl-6-(piperazine-1-carbonyl)-1H-indol-4-yl)dihydropyrimidine-2,4(1H,3H)-dione]",2.51 nM,–,–
"CC(C)n1ccc2c(N3CCC(=O)NC3=O)cc(C(=O)N(C)C3CCNCC3)cc21 [ECB15, 4-(2,4-Dioxotetrahydropyrimidin-1(2H)-yl)-1-isopropyl-N-methyl-N-(piperidin-4-yl)-1H-indole-6-carboxamide]",25.1 nM,–,–
"CC(C)n1ccc2c(N3CCC(=O)NC3=O)cc(C(=O)N(C)CC3CCNCC3)cc21 [ECB16, 4-(2,4-Dioxotetrahydropyrimidin-1(2H)-yl)-1-isopropyl-N-methyl-N-(piperidin-4-ylmethyl)-1H-indole-6-carboxamide]",31.6 nM,–,–
"O=C1CCN(c2ncnc3c2ccn3C2CCNCC2)C(=O)N1 [ECB17, 1-(7-(piperidin-4-yl)-7H-pyrrolo[2,3-d]pyrimidin-4-yl)dihydropyrimidine-2,4(1H,3H)-dione]",316 nM,–,–
"O=C1CCN(c2cccc3c2cnn3C2CCNCC2)C(=O)N1 [ECB18, 1-(1-(Piperidin-4-yl)-1H-indazol-4-yl)dihydropyrimidine-2,4(1H,3H)-dione]",10 nM,–,–
"O=C1CCN(c2ccnc3c2cnn3C2CCNCC2)C(=O)N1 [ECB19, 1-(1-(piperidin-4-yl)-1H-pyrazolo[3,4-b]pyridin-4-yl)dihydropyrimidine-2,4(1H,3H)-dione]",380 nM,–,–
"O=C1CCN(c2nccc3c2ccn3C2CCNCC2)C(=O)N1 [ECB25, 1-(1-(piperidin-4-yl)-1H-pyrrolo[3,2-c]pyridin-4-yl)dihydropyrimidine-2,4(1H,3H)-dione]",229 nM,–,–
"O=C1CCN(c2cccc3c2ccn3C[C@]2(F)CCCNC2)C(=O)N1 [ECB29, (S)-1-(1-((3-fluoropiperidin-3-yl)methyl)-1H-indol-4-yl)dihydropyrimidine-2,4(1H,3H)-dione]",120 nM,–,–
"O=C1CCN(c2cc(C(F)(F)F)cc3c2cnn3C2CCNCC2)C(=O)N1 [ECB30, 1-(1-(piperidin-4-yl)-6-(trifluoromethyl)-1H-indazol-4-yl)dihydropyrimidine-2,4(1H,3H)-dione]",245 nM,–,–
"O=C1CCN(c2cc(C(F)(F)F)cc3c2ccn3C2CCNCC2)C(=O)N1 [ECB37, 1-(1-(piperidin-4-yl)-6-(trifluoromethyl)-1H-indol-4-yl)dihydropyrimidine-2,4(1H,3H)-dione]",55 nM,–,–
"O=C1CCN(c2cc(F)cc3c2ccn3C2CCNCC2)C(=O)N1 [ECB44, 1-(6-Fluoro-1-(piperidin-4-yl)-1H-indol-4-yl)dihydropyrimidine-2,4(1H,3H)-dione]",33.1 nM,–,–
"Cn1ccc2c(N3CCC(=O)NC3=O)cccc21 [ECB45, 1-(1-Methyl-1H-indol-4-yl)dihydropyrimidine-2,4(1H,3H)-dione]",100 nM,–,–
"Cn1ncc2c(N3CCC(=O)NC3=O)cccc21 [ECB46, 1-(1-Methyl-1H-indazol-4-yl)dihydropyrimidine-2,4(1H,3H)-dione]",309 nM,–,–
"Cn1ccc2c(N3CCC(=O)NC3=O)nccc21 [ECB47, 1-(1-Methyl-1H-pyrrolo[3,2-c]pyridin-4-yl)dihydropyrimidine-2,4(1H,3H)-dione]",575 nM,–,–
"COCCn1ccc2c(N3CCC(=O)NC3=O)cccc21 [ECB48, 1-(1-(2-Methoxyethyl)-1H-indol-4-yl)dihydropyrimidine-2,4(1H,3H)-dione]",35.5 nM,–,–
"Cc1ccc(N2CCC(=O)NC2=O)c2ccn(C)c12 [ECB49, 1-(1,7-Dimethyl-1H-indol-4-yl)dihydropyrimidine-2,4(1H,3H)-dione]",20 nM,–,–
"CCn1ccc2c(N3CCC(=O)NC3=O)cccc21 [ECB50, 1-(1-Ethyl-1H-indol-4-yl)dihydropyrimidine-2,4(1H,3H)-dione]",24 nM,–,–
"CCn1ccc2c(N3CCC(=O)NC3=O)cncc21 [ECB51, 1-(1-Ethyl-1H-pyrrolo[2,3-c]pyridin-4-yl)dihydropyrimidine-2,4(1H,3H)-dione]",25.1 nM,–,–
